Test results as given in US11976073B2, “Bicyclic amines as CDK2 inhibitors” (Incyte Corporation, priority 2021, dated 2024).

Assays:
CDK2/Cyclin E1 = molecular target: T1, CDK2/Cyclin E1 (Homo sapiens, UniProt P24941); experiment: CDK2/Cyclin E1 HTRF enzyme activity assay; format: biochemical; conditions: 1 mM ATP
T1 construct: utilize full-length human CDK2 co-expressed as N-terminal GST-tagged protein; GST (N); purchased Carna 04-165; host or cells: baculovirus expression system
Method: Example A. CDK2/Cyclin E1 HTRF Enzyme Activity Assay
CDK2/Cyclin E1 enzyme activity assays utilize full-length human CDK2 co-expressed as N-terminal GST-tagged protein with FLAG-Cyclin E1 in a baculovirus expression system (Carna Product Number 04-165). Assays were conducted in white 384-well polystyrene plates in a final reaction volume of 8 μL. CDK2/Cyclin E1 (0.25 nM) was incubated with the compounds of the Examples (40 nL serially diluted in DMSO) in the presence of ATP (50 μM or 1 mM) and 50 nM ULight™-labeled eIF4E-binding protein 1 (THR37/46) peptide (PerkinElmer) in assay buffer (containing 50 mM HEPES pH 7.5, 1 mM EGTA, 10 mM MgCl2, 2 mM DTT, 0.05 mg/mL BSA, and 0.01% Tween 20) for 60 minutes at room temperature. The reactions were stopped by the addition of EDTA and Europium-labeled anti-phospho-4E-BP1 antibody (PerkinElmer), for a final concentration of 15 mM and 1.5 nM, respectively. HTRF signals were read after 1 hour at room temperature on a PHERAstar FS plate reader (BMG Labtech). Data was analyzed with IDBS XLFit and GraphPad Prism 5.0 software using a three or four parameter dose response curve to determine IC50 for each compound.

CDK2 = CDK2 (Homo sapiens, UniProt P24941); experiment: Enzymatic binding data against CDK2 (comparison of isomeric peaks); format: biochemical; conditions: Peak 1 vs Peak 2 of Example 2, TFA salts
Method: To a solution of 6-(1-(1-ethoxyethyl)-1H-pyrazol-4-yl)-5-(1-(trifluoromethyl)cyclobutoxy)-[1,2,4]triazolo[…] (20 mg, 0.05 mmol) and 4-(methylsulfonyl)cyclohexan-1-one (26 mg, 0.15 mmol) in DCE (0.8 mL) was added TFA (0.2 mL) and sodium triacetoxyborohydride (31 mg, 0.15 mmol) and the resulting solution was stirred at 60° C. After 4 h, a second aliquot of 4-(methylsulfonyl)cyclohexan-1-one (13 mg, 0.08 mmol) and sodium triacetoxyborohydride (15 mg, 0.08 mmol) was added and stirring was continued overnight at 60° C. The volatiles were removed and the residue was dissolved in CH3CN and purified by prep-HPLC (Sunfire C18 column, eluting with a gradient of 21% to 39% acetonitrile/water containing 0.1% TFA over 12 minutes at a flow rate of 60 mL/min) to afford two isomeric peaks as their TFA salts. Peak 1 eluted at 8.8 min and Peak 2 eluted at 9.9 min. […] LC-MS calculated for C20H25F3N7O3S (M+H)^+: m/z=500.2; found 500.2.

| SMILES | IC50 (CDK2/Cyclin E1) | relative activity of the isomeric peaks against CDK2 (CDK2) |
| --- | --- | --- |
| CC(C)Oc1c(-c2cn[nH]c2)ncn2nc(NC3CCC(S(C)(=O)=O)CC3)nc12 (single isomer, unassigned) [Example 1, 8-Isopropoxy-N-(4-(methylsulfonyl)cyclohexyl)-7-(1H-pyrazol-4-yl)-[1,2,4]triazolo[1,5-c]pyrimidin-2-amine] | ≤ 10 nM | – |
| CS(=O)(=O)C1CCC(Nc2nc3cnc(-c4cn[nH]c4)c(OC4(C(F)(F)F)CCC4)n3n2)CC1 (single isomer, unassigned) [Example 2, N-(4-(Methylsulfonyl)cyclohexyl)-6-(1H-pyrazol-4-yl)-5-(1-(trifluoromethyl)cyclobutoxy)-[1,2,4]triazolo[1,5-a]pyrazin-2-amine] | ≤ 10 nM | more active isomer |
